According to patent US20090143418A1, “Compositions and Methods for Preventing and Treating Hair Growth Cycle-Related Conditions” (THE REGENTS OF THE UNIVERSITY OF MICHIGAN, priority 2007, published 2009):
Several values for one entry are separate records, joined by “and”; a condition that tells them apart may be missing. Equal entries are not always repeated.

Tests used:
DCT-LacZ mice [1] = experiment: DCT-LacZ (X-gal) staining of skin, hair follicles containing melanocyte progenitors; format: in vivo, mouse; conditions: for percentage of hair follicles containing DCT-LacZ+ cells, Average: 11.2 grays irradiation, rapamycin 4 mg/kg/day i.p.; for percentage of hair follicles containing DCT-LacZ+ cells, individual mouse: individual animals (Mouse 1-4), 4 mg/kg/day i.p., 4 mg/kg/day
Procedure: Mice: DCT-LacZ mice were backcrossed for 3 generations on a C57BL background.
Irradiation and Bone Marrow Transplant: Adult recipient mice were irradiated using a gamma cell irradiator. Mice received two doses of 560 rads each delivered 3 hours apart (FIGS. 1-4, FIG. 7, Table 1). Mice received 1,000,000 whole bone marrow cells isolated from a C57BL donor (FIGS. 1-4, FIG. 7, Table 1). Bone marrow cells were suspended in HBSS free with 2% Bovine Serum and injected via the retro orbital venous sinus. Where indicated, mice were sublethally irradiated with 650 rads and not subjected to bone marrow transplant (FIG. 6).
(§1) Rapamycin: Rapamycin (LC Laboratories) was administered by intraperitoneal injection. Rapamycin was reconstituted in ethanol (10 mg/ml or 1 mg/ml) and diluted into a solution of 5% Tween-80 (Sigma) and 5% PEG-400 (Hampton Research). The final volume injected was […]. Dosing and administration regimes were as indicated in Example II.
(§2) DCT-LacZ Staining A 2×2 cm patch of skin was harvested with dissecting scissors from euthanized DCT-LacZ mice. The skin patch was washed in phosphate buffer (0.5M Na2HPO4, 0.5M NaH2PO4, 2 mM MgC12, 0.02% NP-40, 0.01% sodium deoxycolate), and then fixed on ice in 0.2% glutaraldehyde in phosphate buffer for 30 minutes. While being fixed, the skin samples were microwaved in fixation solution on ice for 20 seconds. After fixation, the samples were washed and the adipose layer was removed by dissection. After another washing, the skin samples were stained in 1 mg/ml X-gal in phosphate buffer for 2.5 hours. After staining, samples were washed and roughly 1 mm wide sections were made manually using a razor blade. Sections were mounted in 70% glycerol.
To better understand the effects of rapamycin on melanocyte progenitors, transplantation experiments in mice bearing a DCT-LacZ transgene, which is expressed by melanocyte progenitors in hair follicles, were conducted (see, e.g., Mackenzie, M. A., et al., Dev Biol 192, 99-107 (1997); Nishimura, E. K., et al., Nature 416, 854-60 (2002); each herein incorporated by reference in their entireties). This transgene expresses the bacterial LacZ gene under the control of the melanocyte specific promoter for the gene dopachrome tautomerase. These mice were used as recipients in similar transplants where 1 million whole bone marrow cells were irradiated and transplanted. The mice were treated with 0.4 mg/kg of rapamycin every other day for the first two weeks and then with 4 mg/kg/day after that. These mice were sacrificed at regular intervals, and their skin harvested and stained with X-gal.
Animals were sacrificed at each time point and stained with X-gal. The percentage of hair follicles containing DCT-LacZ+ cells was quantified.

[2] = test system: wild-type nonirradiated mice; experiment: Depilation-induced hair cycle, skin pigmentation onset; format: in vivo, mouse; conditions: 4 mg/kg starting the day after depilation
Procedure: as §1
Depilation: Mice were anesthetized by intraperitoneal injection of 80 mg/kg of ketamine and 4 mg/kg of […] dissolved in HBSS. Final injection volume was 200 μl. The dorsal hair of the mice was then shaved with conventional clippers, and a commercial depilatory cream (Veet®) was applied liberally to an area of approximately 1.5×1.5 cm. After 5 minutes, the cream was washed off the mouse using warm water, and the mouse was gently dried using paper towels.
In analyzing the frequency of hair follicles that contained X-gal+ melanocytes, it became apparent that the hair follicles of rapamycin treated animals were less frequently in mature stages of the hair cycle (see FIG. 4). […] As such, a region of the lower back of wild-type nonirradiated mice was shaved and depilated. Depilation induced a new hair growth cycle, thereby permitting to test if in this context rapamycin could prevent the onset of or lengthen the duration of the hair cycle. […]

DCT-LacZ mice [3] = experiment: Hair cycle stage (anagen) in skin sections of irradiated, transplanted DCT-LacZ mice; format: in vivo, mouse; conditions: 2/18 rapamycin treated animals versus 56% (10/18) vehicle; P=0.0001
Procedure: as §2
To better understand the effects of rapamycin on melanocyte progenitors, transplantation experiments in mice bearing a DCT-LacZ transgene, which is expressed by melanocyte progenitors in hair follicles, were conducted (see, e.g., Mackenzie, M. A., et al., Dev Biol 192, 99-107 (1997); Nishimura, E. K., et al., Nature 416, 854-60 (2002); each herein incorporated by reference in their entireties). This transgene expresses the bacterial LacZ gene under the control of the melanocyte specific promoter for the gene dopachrome tautomerase. […]

hirsutism = hirsutism patients; cited from earlier work

SMILES	percentage of hair follicles containing DCT-LacZ+ cells, Average (DCT-LacZ mice [1]; Week 8) [%]	percentage of hair follicles containing DCT-LacZ+ cells, individual mouse (DCT-LacZ mice [1]; Week 8)	percentage of hair follicles containing DCT-LacZ+ cells, Average (DCT-LacZ mice [1]; Week 10) [%]	percentage of hair follicles containing DCT-LacZ+ cells, individual mouse (DCT-LacZ mice [1]; Week 10)	percentage of hair follicles containing DCT-LacZ+ cells, Average (DCT-LacZ mice [1]; Week 12) [%]	percentage of hair follicles containing DCT-LacZ+ cells, individual mouse (DCT-LacZ mice [1]; Week 12)	percentage of hair follicles containing DCT-LacZ+ cells, Average (DCT-LacZ mice [1]; Week 14) [%]	percentage of hair follicles containing DCT-LacZ+ cells, individual mouse (DCT-LacZ mice [1]; Week 14)	days until pigmentation was visible in skin ([2]; n=5, vehicle 16.7 days, p=0.04) [days]	delay of change in skin color (progression through anagen) versus vehicle ([2]; on average) [days]	animals with hairs in anagen (DCT-LacZ mice [3]) [%]	side effects (hirsutism)
CO[C@H]1C[C@@H]2CC[C@@H](C)[C@@](O)(O2)C(=O)C(=O)N2CCCC[C@H]2C(=O)O[C@H]([C@H](C)C[C@@H]2CC[C@@H](O)[C@H](OC)C2)CC(=O)[C@H](C)/C=C(\C)[C@@H](O)[C@@H](OC)C(=O)[C@H](C)C[C@H](C)/C=C/C=C/C=C/1C [Rapamycin]	61.0	77.0% and 45.0%	34.1	19.3% and 22.0% and 42.0% and 53.0%	48.3	54.0% and 39.0% and 52.0%	40.5	53.0% and 42.0% and 17.0% and 50.0%	25.2	8	11	–
NCCCC(N)(C(=O)O)C(F)F (stereo not drawn) [Eflornithine]	–	–	–	–	–	–	–	–	–	–	–	minor skin irritation, folliculitis, stinging, burning, tingling, acne, and/or rash
